Measurements: paper PMC7127696 (Bioorganic & Medicinal Chemistry, 2015)
Read-outs that look alike come from different tables or passages of the source.

Assays:
Para-influenza-3 virus = experiment: CPE reduction assay, para-influenza-3 virus in Vero cells; assay type: cell-based; details: for EC50: Vero, read-out: Antiviral EC50 value, Para-influenza-3 virus
Reovirus-1 = experiment: CPE reduction assay, reovirus-1 in Vero cells; assay type: cell-based; details: for EC50: Vero, read-out: Antiviral EC50 value, Reovirus-1
Sindbis virus = experiment: CPE reduction assay, Sindbis virus in Vero cells; assay type: cell-based; details: for EC50: Sindbis virus, Vero, read-out: Antiviral EC50 value, Sindbis virus
[1] = test system: Respiratory syncytial virus; experiment: CPE reduction assay, respiratory syncytial virus in HeLa cells; assay type: cell-based; details: for Selectivity index (ratio of MCC to antiviral EC50), Respiratory syncytial virus: value in square brackets
Vero cells = details: microscopy
[2] = test system: HEL: human embryonic lung fibroblast cells; details: microscopy
[3] = test system: MDCK: Madin-Darby canine kidney cells; details: microscopy
HeLa cells = details: microscopy
Punta Toro virus = experiment: CPE reduction assay, Punta Toro virus in Vero cells; assay type: cell-based
Coxsackie B4 virus [4] = experiment: CPE reduction assay, Coxsackie B4 virus in HeLa cells; assay type: cell-based
[5] = test system: Vesicular stomatitis virus; assay type: cell-based
Coxsackie B4 virus [6] = experiment: CPE reduction assay, Coxsackie B4 virus in Vero cells; assay type: cell-based
[7] = Vero cells, CPE inhibition, microscopy, mean ± SEM of three tests
[8] = Vero cells, value in square brackets
[9] = Vero cells, CPE inhibition, microscopy
[10] = CPE inhibition, microscopy, mean ± SEM of three tests

Row | Compound | EC50 (Para-influenza-3 virus) | EC50 (Reovirus-1) | MCC (compound concentration causing minimal changes in cell morphology) (Vero cells) | MCC (compound concentration causing minimal changes in cell morphology) [2] | MCC (compound concentration causing minimal changes in cell morphology) [3] | MCC (compound concentration causing minimal changes in cell morphology) (HeLa cells) | further results
1 | CNC(=S)NNC(=O)c1[nH]c2ccc(F)cc2c1-c1ccccc1 [Compound 6a, 1-((5-Fluoro-3-phenyl-1H-indol-2-yl)carbonyl)-4-methyl-3-thiosemicarbazide] | > 100 mg/L | > 100 mg/L |  |  |  |  | 
2 | CCNC(=S)NNC(=O)c1[nH]c2ccc(F)cc2c1-c1ccccc1 [Compound 6b, 4-Ethyl-1-((5-fluoro-3-phenyl-1H-indol-2-yl)carbonyl)-3-thiosemicarbazide] | > 100 mg/L | > 100 mg/L |  |  |  |  | EC50 (Sindbis virus): 3.2 ± 0.8 mg/L; Selectivity index (ratio of MCC to antiviral EC50), Respiratory syncytial virus [1]: ≥ 5
3 | CCCNC(=S)NNC(=O)c1[nH]c2ccc(F)cc2c1-c1ccccc1 [Compound 6c, 1-((5-Fluoro-3-phenyl-1H-indol-2-yl)carbonyl)-4-propyl-3-thiosemicarbazide] | > 100 mg/L | > 100 mg/L | 100 μg/mL |  |  |  | Selectivity index (ratio of MCC to antiviral EC50), Respiratory syncytial virus [1]: ≥ 9
4 | C=CCNC(=S)NNC(=O)c1[nH]c2ccc(F)cc2c1-c1ccccc1 [Compound 6d, 4-Allyl-1-((5-fluoro-3-phenyl-1H-indol-2-yl)carbonyl)-3-thiosemicarbazide] | > 100 mg/L | > 100 mg/L |  |  |  |  | Selectivity index (ratio of MCC to antiviral EC50), Respiratory syncytial virus [1]: ≥ 5
5 | CCCCNC(=S)NNC(=O)c1[nH]c2ccc(F)cc2c1-c1ccccc1 [Compound 6e, 4-Butyl-1-((5-fluoro-3-phenyl-1H-indol-2-yl)carbonyl)-3-thiosemicarbazide] | > 100 mg/L | > 100 mg/L |  | >10 μg/mL |  |  | 
6 | O=C(NNC(=S)NCc1ccccc1)c1[nH]c2ccc(F)cc2c1-c1ccccc1 [Compound 6f, 4-Benzyl-1-((5-fluoro-3-phenyl-1H-indol-2-yl)carbonyl)-3-thiosemicarbazide] | > 100 mg/L | > 100 mg/L |  | >10 μg/mL | >10 μg/mL |  | 
7 | O=C(NNC(=S)NCCc1ccccc1)c1[nH]c2ccc(F)cc2c1-c1ccccc1 [Compound 6g, 1-((5-Fluoro-3-phenyl-1H-indol-2-yl)carbonyl)-4-phenethyl-3-thiosemicarbazide] | > 100 mg/L | > 100 mg/L |  |  |  |  | 
8 | CN1C(=O)CS/C1=N\NC(=O)c1[nH]c2ccc(F)cc2c1-c1ccccc1 [Compound 7a, 5-Fluoro-N′-(3-methyl-4-oxo-1,3-thiazolidinon-2-ylidene)-3-phenyl-1H-indol-2-carbohydrazide] | > 100 mg/L | > 100 mg/L |  | >100 μg/mL | 100 μg/mL | 100 μg/mL | 
9 | CCN1C(=O)CS/C1=N\NC(=O)c1[nH]c2ccc(F)cc2c1-c1ccccc1 [Compound 7b, N′-(3-Ethyl-4-oxo-1,3-thiazolidinon-2-ylidene)-5-fluoro-3-phenyl-1H-indol-2-carbohydrazide] | > 100 mg/L | > 100 mg/L |  | >100 μg/mL | 100 μg/mL | >100 μg/mL | 
10 | CCCN1C(=O)CS/C1=N\NC(=O)c1[nH]c2ccc(F)cc2c1-c1ccccc1 [Compound 7c, 5-Fluoro-N′-(4-oxo-3-propyl-1,3-thiazolidinon-2-ylidene)-3-phenyl-1H-indol-2-carbohydrazide] | > 100 mg/L | > 100 mg/L | >100 μg/mL | >100 μg/mL | >100 μg/mL | >100 μg/mL | 
11 | C=CCN1C(=O)CS/C1=N\NC(=O)c1[nH]c2ccc(F)cc2c1-c1ccccc1 [Compound 7d, N′-[(2Z)-3-Allyl-4-oxo-1,3-thiazolidinon-2-ylidene]-5-fluoro-3-phenyl-1H-indol-2-carbohydrazide] | > 100 mg/L | > 100 mg/L | >100 μg/mL | >100 μg/mL | 100 μg/mL | >100 μg/mL | 
12 | CCCCN1C(=O)CS/C1=N\NC(=O)c1[nH]c2ccc(F)cc2c1-c1ccccc1 [Compound 7e, N′-(3-Butyl-4-oxo-1,3-thiazolidinon-2-ylidene)-5-fluoro-3-phenyl-1H-indol-2-carbohydrazide] | > 100 mg/L | > 100 mg/L | >10 μg/mL | >10 μg/mL | >10 μg/mL | >100 μg/mL | 
13 | O=C(N/N=C1\SCC(=O)N1Cc1ccccc1)c1[nH]c2ccc(F)cc2c1-c1ccccc1 [Compound 7f, N′-(3-Benzyl-4-oxo-1,3-thiazolidinon-2-ylidene)-5-fluoro-3-phenyl-1H-indol-2-carbohydrazide] | > 100 mg/L | > 100 mg/L | ⩾10 μg/mL | >10 μg/mL | >10 μg/mL | >100 μg/mL | 
14 | O=C(N/N=C1\SCC(=O)N1CCc1ccccc1)c1[nH]c2ccc(F)cc2c1-c1ccccc1 [Compound 7g, 5-Fluoro-N′-(4-oxo-3-phenethyl-1,3-thiazolidinon-2-ylidene)-3-phenyl-1H-indol-2-carbohydrazide] | > 100 mg/L | > 100 mg/L |  | >10 μg/mL | >10 μg/mL | 100 μg/mL | 
15 | NC(=O)c1ncn([C@@H]2O[C@H](CO)[C@@H](O)[C@H]2O)n1 [Ribavirin, ribavirin, reference compound] | > 250 µM | > 250 µM |  |  |  |  | EC50 (Sindbis virus): 250 µM; MCC (compound concentration causing minimal changes in cell morphology) (HeLa cells; ribavirin data in μM): >250 μM; MCC (compound concentration causing minimal changes in cell morphology) (Vero cells; ribavirin data in μM): >250 μM; EC50 (Punta Toro virus; Punta Toro virus, Vero, read-out: Antiviral EC50 value, Punta Toro virus): 50 µM
16 | dextran sulfate [DS-5000] |  |  | >100 μg/mL |  |  | >100 μg/mL | Antiviral EC50 value, Sindbis virus (Sindbis virus; [7]): 68 ± 32 mg/L; Selectivity index (ratio of MCC to antiviral EC50), Sindbis virus (Sindbis virus; [8]): > 1.5; Antiviral EC50 value, Para-influenza-3 virus (Para-influenza-3 virus; [9]): >100 mg/L; Antiviral EC50 value, Respiratory syncytial virus [1, 10]: 5.3 ± 3.3 mg/L; Selectivity index (ratio of MCC to antiviral EC50), Respiratory syncytial virus [1]: > 19; Antiviral EC50 value, Coxsackie B4 virus (Coxsackie B4 virus [4]; [10]): ≥ 4 mg/L; Selectivity index (ratio of MCC to antiviral EC50), Coxsackie B4 virus (Coxsackie B4 virus [4]; value in square brackets): ≥ 25; Antiviral EC50 value, Vesicular stomatitis virus [5]: 8.0 ± 3.1 [>12] μg/mL; Selectivity index (ratio of MCC to antiviral EC50), Vesicular stomatitis virus [5]: 8.0 ± 3.1 [>12]; Antiviral EC50 value, Coxsackie B4 virus (Coxsackie B4 virus [6]; [10]): 40 ± 10 mg/L; Selectivity index (ratio of MCC to antiviral EC50), Coxsackie B4 virus (Coxsackie B4 virus [6]; value in square brackets): > 2.5; Antiviral EC50 value, Punta Toro virus (Punta Toro virus; [7]): 20 ± 0 mg/L; Selectivity index (ratio of MCC to antiviral EC50), Punta Toro virus (Punta Toro virus; [8]): > 5; Antiviral EC50 value, Reovirus-1 (Reovirus-1; [9]): >100 mg/L
